The target of assay [1] is T1, Short transient receptor potential channel 4 (Mus musculus, UniProt Q9QUQ5).
T1 sequence (Q9QUQ5 whole entry): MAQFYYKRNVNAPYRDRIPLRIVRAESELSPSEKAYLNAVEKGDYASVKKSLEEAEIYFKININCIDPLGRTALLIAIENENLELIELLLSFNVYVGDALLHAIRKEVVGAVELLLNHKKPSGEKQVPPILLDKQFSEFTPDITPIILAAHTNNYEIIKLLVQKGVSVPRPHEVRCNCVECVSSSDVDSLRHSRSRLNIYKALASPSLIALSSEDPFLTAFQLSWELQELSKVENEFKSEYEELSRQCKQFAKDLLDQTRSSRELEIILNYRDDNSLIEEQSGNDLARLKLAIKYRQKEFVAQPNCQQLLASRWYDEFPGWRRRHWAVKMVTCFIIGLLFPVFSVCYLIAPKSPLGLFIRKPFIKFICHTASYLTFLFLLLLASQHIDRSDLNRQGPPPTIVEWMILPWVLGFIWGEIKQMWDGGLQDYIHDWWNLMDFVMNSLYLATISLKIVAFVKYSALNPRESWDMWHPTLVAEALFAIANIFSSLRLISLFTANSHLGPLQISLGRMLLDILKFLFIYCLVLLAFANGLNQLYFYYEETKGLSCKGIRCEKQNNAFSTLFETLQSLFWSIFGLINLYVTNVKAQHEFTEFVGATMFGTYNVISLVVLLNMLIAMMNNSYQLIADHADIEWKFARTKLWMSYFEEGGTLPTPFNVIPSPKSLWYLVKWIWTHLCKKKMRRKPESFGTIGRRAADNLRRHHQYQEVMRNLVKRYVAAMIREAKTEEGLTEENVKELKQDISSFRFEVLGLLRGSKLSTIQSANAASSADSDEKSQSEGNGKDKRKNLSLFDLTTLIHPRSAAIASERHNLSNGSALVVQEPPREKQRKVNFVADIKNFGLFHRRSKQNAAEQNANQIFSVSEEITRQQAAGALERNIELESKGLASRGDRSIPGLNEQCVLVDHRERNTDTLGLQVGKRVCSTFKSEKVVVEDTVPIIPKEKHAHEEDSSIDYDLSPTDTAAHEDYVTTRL
Kind of assay: block of DAMGO-driven TRPC4 calcium entry – cell-based, HEK293 TRPC4/mu-opioid, Fluo-4 calcium, dose response (AID 434942).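 Further: potency of inhibitors blocking the TRPC4 calcium response.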 The format is functional.

In assay [2] the target is T2, Leucine aminopeptidase (Plasmodium falciparum 3D7, UniProt Q8IL11).
T2 sequence (Q8IL11 whole entry): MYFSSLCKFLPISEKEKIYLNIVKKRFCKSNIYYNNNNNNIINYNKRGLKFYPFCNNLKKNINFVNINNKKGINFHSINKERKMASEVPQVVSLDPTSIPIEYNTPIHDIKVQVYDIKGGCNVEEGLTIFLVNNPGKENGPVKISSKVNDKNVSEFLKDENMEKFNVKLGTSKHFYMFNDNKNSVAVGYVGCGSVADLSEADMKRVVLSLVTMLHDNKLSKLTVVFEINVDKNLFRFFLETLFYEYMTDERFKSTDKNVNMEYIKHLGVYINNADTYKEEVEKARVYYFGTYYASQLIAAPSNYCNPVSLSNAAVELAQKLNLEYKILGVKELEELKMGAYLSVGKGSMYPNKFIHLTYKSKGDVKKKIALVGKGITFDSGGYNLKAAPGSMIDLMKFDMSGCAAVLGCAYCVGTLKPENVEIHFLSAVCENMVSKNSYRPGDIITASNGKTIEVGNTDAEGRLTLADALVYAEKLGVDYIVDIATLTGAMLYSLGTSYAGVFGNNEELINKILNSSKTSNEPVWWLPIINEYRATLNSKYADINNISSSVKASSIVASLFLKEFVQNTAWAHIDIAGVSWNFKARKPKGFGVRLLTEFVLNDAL
Kind of assay: P. falciparum M17LAP inhibitors, primary screen, biochemical, fluorogenic H-Leu-NHMec substrate, 1536-well (AID 1619). In kind it is functional.

For assay [3], the system named is Streptococcus sp. 'group A'. Briefly: Streptococcus pyogenes SK(-)GAS viability under kanamycin – luminescence, BacTiterGlo, confirmation, counter-screen for streptokinase expression inhibitor project, dose response (AID 1900). In kind it is functional, organism-based. Background: Counterscreens check selectivity or assay interference.
The target in assay [4] is T3, Streptokinase A (Streptococcus pyogenes serotype M1, UniProt P10520).
T3 sequence (P10520 whole entry): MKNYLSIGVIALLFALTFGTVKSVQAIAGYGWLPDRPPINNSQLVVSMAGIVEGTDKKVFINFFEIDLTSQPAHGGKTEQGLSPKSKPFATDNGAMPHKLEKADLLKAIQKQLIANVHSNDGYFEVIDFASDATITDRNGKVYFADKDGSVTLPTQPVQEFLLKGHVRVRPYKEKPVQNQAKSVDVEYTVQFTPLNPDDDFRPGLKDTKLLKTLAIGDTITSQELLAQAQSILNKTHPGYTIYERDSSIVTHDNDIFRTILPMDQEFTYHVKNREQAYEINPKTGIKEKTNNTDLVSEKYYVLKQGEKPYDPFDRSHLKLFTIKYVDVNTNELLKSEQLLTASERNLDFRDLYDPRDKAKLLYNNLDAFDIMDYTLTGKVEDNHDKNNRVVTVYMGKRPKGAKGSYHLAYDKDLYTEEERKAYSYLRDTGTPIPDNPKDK
Briefly: viability-normalized secreted streptokinase activity reduction – plasminogen activation absorbance, OD405, dose response (AID 1914).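 Further: secreted streptokinase activity via plasminogen activation per viability signal from cell pellet.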 The format is functional, Streptococcus pyogenes M1 GAS.

In assay [5] the test system is Streptococcus. Briefly: GAS UMAA2166 growth inhibition – luminescence, BacTiterGlo, counter-screen for streptokinase expression inhibitor project, dose response (AID 1915).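 Further: potency for reduction of bacterial viability or growth.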 The format is functional, organism-based.
Assay [6] has as its system H9c2. Briefly: cells. The format is functional, cell-based. As to conditions: Rattus norvegicus, H9c2, Myocardium.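 Further: confirmatory concentration-response retest of ultra-high-throughput screening hits for modulation of myocardial damage; cell death induced by hydrogen peroxide oxidative stress; compound pretreatment for 60 min then peroxide exposure for 2 h; potency is for protecting the cells against peroxide damage rather than for killing them.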
The target of assay [7] is T4, Cytochrome P450 3A4 (Homo sapiens, UniProt P08684). The settings on record: Potency.
In assay [8] the target is T5, Rac GTPase-activating protein 1 (Homo sapiens, UniProt Q9H0H5).
T5 sequence (Q9H0H5 whole entry): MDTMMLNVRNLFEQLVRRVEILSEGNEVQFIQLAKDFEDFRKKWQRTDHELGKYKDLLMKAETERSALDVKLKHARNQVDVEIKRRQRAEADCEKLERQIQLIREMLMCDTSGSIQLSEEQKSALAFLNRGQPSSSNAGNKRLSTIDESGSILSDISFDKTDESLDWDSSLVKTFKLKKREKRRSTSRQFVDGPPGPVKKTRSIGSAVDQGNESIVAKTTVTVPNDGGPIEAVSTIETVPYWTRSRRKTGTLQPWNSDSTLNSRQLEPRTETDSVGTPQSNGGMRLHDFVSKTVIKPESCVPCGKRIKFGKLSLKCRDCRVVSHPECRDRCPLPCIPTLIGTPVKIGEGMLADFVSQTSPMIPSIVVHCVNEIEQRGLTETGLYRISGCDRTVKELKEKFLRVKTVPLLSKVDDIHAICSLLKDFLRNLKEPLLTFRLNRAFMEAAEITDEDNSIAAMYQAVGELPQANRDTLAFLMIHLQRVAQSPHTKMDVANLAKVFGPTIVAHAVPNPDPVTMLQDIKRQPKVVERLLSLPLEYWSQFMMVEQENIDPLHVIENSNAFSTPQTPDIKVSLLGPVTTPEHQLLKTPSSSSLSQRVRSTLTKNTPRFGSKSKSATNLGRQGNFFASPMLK
Briefly: blockers of MgcRacGAP-driven Rac1 GTP hydrolysis – biochemical, ADP Hunter fluorescence, primary and confirmatory, confirmation (AID 624330). In kind it is functional.

Assay [9] can be described thus: luciferase reporter signal suppression in cells – H4 neuroglioma cells, luminescence, dose response (AID 1990). In kind it is functional, cell-based. A general note: A reporter such as luciferase makes a cellular process visible.
The nature of assay [10]: Luminescence Cell-Based Dose Response HTS to Identify Inhibitors of 5'UTR Stem-Loop Driven Prion Protein mRNA Translation in H4 Neuroglioblastoma Cells. [Related pubchem assays: 1827 (Project Summary), 1813 (Primary HTS)]. The format is functional.
Assay [11] is described as follows: alpha-synuclein stem-loop luciferase translation blockers – H4 neuroglioma cells, luminescence, confirmation (AID 1988). In kind it is functional, cell-based.
Assay [12] concerns the target T4, Cytochrome P450 3A4.

Calls of active or inactive are those of the source.

From ChEMBL document CHEMBL1201862, “PubChem BioAssay data set” (2004) come the findings set out here.

T4 sequence (P08684 whole entry): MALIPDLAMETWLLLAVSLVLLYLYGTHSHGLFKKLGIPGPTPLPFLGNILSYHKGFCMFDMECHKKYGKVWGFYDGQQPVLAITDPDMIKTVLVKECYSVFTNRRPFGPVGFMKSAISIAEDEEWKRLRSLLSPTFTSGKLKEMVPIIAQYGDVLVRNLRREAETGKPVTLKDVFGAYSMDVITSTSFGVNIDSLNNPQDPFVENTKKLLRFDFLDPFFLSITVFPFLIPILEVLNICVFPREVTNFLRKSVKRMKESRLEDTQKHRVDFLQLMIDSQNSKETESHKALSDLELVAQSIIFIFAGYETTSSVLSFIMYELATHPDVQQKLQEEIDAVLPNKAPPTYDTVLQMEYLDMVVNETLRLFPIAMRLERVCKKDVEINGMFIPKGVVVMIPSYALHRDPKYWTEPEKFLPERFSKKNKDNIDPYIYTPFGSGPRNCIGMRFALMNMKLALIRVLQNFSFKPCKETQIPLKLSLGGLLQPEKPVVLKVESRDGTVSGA

As a reminder, the EC50 is the concentration that produces a half-maximal response. For `COc1ccc(Br)cc1CNC(C)c1ccccc1` (stereo not given), in assay [1], the EC50 was 5.31 µM (active).
What is called IC50 is the concentration that inhibits the measured activity by half. Consider `O=C(NC(=S)NNC(=O)c1ccc(Cl)cc1Cl)c1cccnc1`, for which the IC50 in [2] was 49.6 µM (active). For the same molecule, the EC50 in [3] was 5.27 µM (active); in assay [4], > 150 µM (not active); in [5], 96.5 µM (active).
With `N#C/C(=C\c1cn(-c2ccccc2)nc1-c1cccnc1)c1nnc2n1CCCCC2`, the IC50 in [6] is 15.8 µM (active).
`O=C(Nc1ccccc1)N1CCN2C(=O)c3ccccc3C12c1ccccc1` (stereo not given): the EC50 in [1] is 2.11 µM (active).
Consider `O=S(=O)(Nc1nc2ccccc2nc1NCCN1CCOCC1)c1cccc(Cl)c1`, for which the IC50 in [2] is 25.9 µM (active).
`CCOC(=O)C1CCN(c2cc3c(cc2NC(=O)c2ccccc2)n(C)c(=O)n3C)CC1`: the IC50 in assay [6] was > 79 µM (inactive).
With `COc1ccc(Cc2nnc(NS(=O)(=O)Cc3ccccc3)s2)cc1`, in assay [2], the IC50 is 6.34 µM (active).
As to `NS(=O)(=O)c1cccc(NC(=O)COC(=O)Cc2nnc(O)c3ccccc23)c1`, the IC50 in assay [6] is > 79 µM (inactive).
Consider `COc1ccc(NC(=O)c2cccc(N3C(=O)C4CC=C(C)CC4C3=O)c2)c(OC)c1` (stereo not given), for which, in assay [1], the EC50 is 0.0173 µM (active).
One may read the AC50 as the concentration giving half of the maximal activity seen. Take `CC1(C)C(O)CC(O)[C@]2(C)C1CC(O)[C@]1(C)C2CC[C@@]2(C)C(c3ccoc3)CC3OC312` (stereo not given in full): the AC50 in assay [7] was 3.16 µM (inconclusive).
The same measure, in the same setting: as for `O=C(O[C@@H]1Cc2c(O)cc(O)cc2OC1c1ccc(O)c(O)c1)c1cc(O)c(O)c(O)c1` (stereo not given in full), the figure is 25.1 µM (inconclusive).
`Cc1sc2nc(SCC(=O)N3CCCC3)nc(O)c2c1C`: in assay [6], the IC50 was > 79 µM (inactive).
The same measure, in the same setting: the value for `Cc1ccc(NC(=O)CCc2nc(O)c3ccccc3n2)cc1S(=O)(=O)N1CCOCC1` was > 79 µM (inactive).
Regarding `COc1ccc2c(=O)cc(-c3ccccc3)oc2c1O`, the AC50 in assay [7] is 39.8 µM (inconclusive).
In the case of `COCCN(CCOC)c1nc(C)nc2c1nc(-c1ccccc1)n2CCCN(C)C`, the AC50 in assay [7] is 7.94 µM (inconclusive).
As to `Cc1nc2c3cc(Cl)ccc3n(CCN3CCCCC3)c2s1`, in assay [1], the EC50 is 4.22 µM (active).
Consider `Cc1ccc(C=NNc2nc3c(=O)n(C)c(=O)n(C)c3[nH]2)cc1`, for which the IC50 in assay [6] is > 79 µM (inactive).
Turning to `O=c1[nH]c2ccc(S(=O)(=O)N3CCN(Cc4ccccc4)CC3)cc2[nH]c1=O`, in [2], the IC50 was 2.62 µM (active).
As for `Cc1cc(=O)oc2c(O)c(O)ccc12` [4-METHYLDAPHNETIN], the IC50 in [8] was 25.9 µM (active). The AC50 in assay [7] was 25.1 µM (inconclusive).
On to `CCCCN(CC)c1c([N+](=O)[O-])cc(C(F)(F)F)cc1[N+](=O)[O-]` [BENFLURALIN], for which the AC50 in assay [7] was 15.8 µM (inconclusive).
Consider `CCOC(=O)c1c(NC(=O)C2C3C=CC(C3)C2C(=O)O)sc2c1CC(C)CC2` (stereo not given), for which the IC50 in assay [2] is 10.1 µM (active). The EC50 in assay [9] is > 120 µM (not active); in assay [10] it was 60.9 µM (active); in [11] it was 48.1 µM (active).
With `CC1=NNC(=O)C1CCC(=O)N/N=C\c1ccccc1[N+](=O)[O-]` (stereo not given), in assay [2], the IC50 was 3.14 µM (active). In [12], the AC50 is 17.8 µM (inconclusive).
